What was measured:
STAT3 [1] = assay: Electrophoretic mobility shift assay, STAT3 DNA binding; assay type: biochemical; conditions: 30 μM, 30 min, MDA-MB-435s cell nuclear extract
Description: (§1) The reaction mixtures were resolved on 8% polyacylamide gel and visualized with autoradiography.

cyclin D1 and Bcl-XL = assay: Immunoblot of STAT3-regulated genes; assay type: cell-based; conditions: 20 μM and 30 μM
[2] = test system: PC3 prostate cancer cell line; assay: Anti-proliferative activity, MTS assay, PC3; assay type: cell-based; conditions: MTS assay, 2,000 cells/well, means of 2 experiments in triplicate
Description: (§2) MCF-7 breast cancer cells, a cell line with no constitutive activation of STAT3, were used as negative control. […] In addition, the anti-proliferative activities are directly proportional to the level of constitutively active STAT3 expression (Table 1).

[3] = test system: DU 145 prostate cancer cell line; assay: Anti-proliferative activity, MTS assay, DU 145; assay type: cell-based; conditions: Homo sapiens, MTS assay, 2,000 cells/well, means of 2 experiments in triplicate
Description: as §2

STAT1 = target: T1, STAT1 (Homo sapiens, UniProt P42224); assay: Electrophoretic mobility shift assay, STAT1 DNA binding; assay type: biochemical; conditions: 30 μM, MDA-MB-435s cell nuclear extract
T1 construct: endogenous in cells; host or cells: MDA-MB-435s nuclear extract
T1 sequence (P42224 1-750): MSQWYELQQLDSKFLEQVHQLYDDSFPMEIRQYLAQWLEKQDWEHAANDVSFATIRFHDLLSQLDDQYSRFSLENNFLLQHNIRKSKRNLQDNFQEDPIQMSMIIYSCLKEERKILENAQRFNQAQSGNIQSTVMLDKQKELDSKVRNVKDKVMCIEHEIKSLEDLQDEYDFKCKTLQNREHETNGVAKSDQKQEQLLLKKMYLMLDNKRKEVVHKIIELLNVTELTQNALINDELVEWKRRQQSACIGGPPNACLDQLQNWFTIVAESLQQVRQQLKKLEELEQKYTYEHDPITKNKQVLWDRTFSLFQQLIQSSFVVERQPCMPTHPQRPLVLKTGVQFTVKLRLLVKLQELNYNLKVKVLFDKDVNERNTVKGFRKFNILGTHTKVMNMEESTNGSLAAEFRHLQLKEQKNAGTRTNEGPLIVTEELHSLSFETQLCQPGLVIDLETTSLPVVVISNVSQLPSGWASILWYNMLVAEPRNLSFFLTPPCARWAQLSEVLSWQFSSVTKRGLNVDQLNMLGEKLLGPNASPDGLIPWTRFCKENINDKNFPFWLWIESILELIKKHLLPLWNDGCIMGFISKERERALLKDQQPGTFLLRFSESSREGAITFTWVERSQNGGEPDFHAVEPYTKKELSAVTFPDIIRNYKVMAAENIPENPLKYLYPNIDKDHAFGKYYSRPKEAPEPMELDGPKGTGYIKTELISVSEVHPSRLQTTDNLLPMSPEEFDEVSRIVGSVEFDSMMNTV
Description: as §1

STAT3 [4] = assay: STAT3-dependent luciferase reporter (pLucTKS3) in Caov-3 cells; assay type: cell-based; conditions: 20 μM, 48h
Description: (§3) To screen the potential inhibitors that inhibit STAT3 's biological activity, we established Caov-3 cancer cell line that constitutively expresses active STAT3 with a stably integrated STAT3-dependent luciferase reporter construct, pLucTKS3. This construct contains multimerized STAT3 binding sites and its activation specifically depends on STAT3. We examined the effect of eight theoretical STAT3 inhibitors to inhibit STAT3-mediated production of luciferase.
(§4) According to embodiments illustrated by FIG. 3B, the clones stably transfected with pLucTKS3 STAT3-dependent luciferase reporter or SV40 luciferase reporter were treated with 20 μM of the STAT3 inhibitor for 48h and luciferase activity was measured.

STAT3 [5] = assay: STAT3 dimerization, co-immunoprecipitation of STAT3-FLAG and STAT3-HA; assay type: cell-based; conditions: MDA-MB-435s cells, 20 μM, 24h
Experimental: MDA-MB-435s cells were co-transfected with pCMV-STAT3-FLAG and pCMV-STAT3-HA plasmid constructs and immunoblot analyses were performed with anti-FLAG, anti-HA, and anti-STAT3, the results of which are shown in FIG. 5A. The cell lysates were then subjected to immunoprecipitation with an anti-FLAG or anti-HA antibody and immunoblot analyses were performed with anti-HA or anti-FLAG, respectively, the results of which are shown in FIG. 5B.
According to embodiments of experimental results shown in FIG. 5A, MDA-MB-435s cells were transfected with pCMV-STAT3-Flag and pCMV-STAT3-HA plasmid and the cell lysate was immunoblotted with anti-Flag, anti-HA, or anti-STAT3. According to embodiments shown in FIG. 5B, MDA-MB-435s cells were co-transfected with pCMV-STAT3-Flag and pCMV-STAT3-HA plasmids and were exposed to 20 μM of inhibitor for 24h, then cell lysate was immunoprecipitated with anti-HA or anti-Flag antibody, respectively and immunoblotted with HA, Flag, or STAT3 antibody. As shown in Lane 1 of FIG. 5B, no transfection was performed. In lane 2, untreated cells were transfected with pCMV-STAT3-Flag and pCMV-STAT3-HA plasmids.

[6] = test system: MDA-MB-468, MDA-MB-435s, and MDA-MB-231 cell lines; assay: Apoptosis by FACS, cell lines with constitutively active STAT3; assay type: cell-based; conditions: 48 h
Experimental: (§5) According to embodiments of experimental data shown in FIG. 6A, the phosphorylation of STAT3 (Tyr705) in different cell lines: lane 1 with HSF, lane 2 with MCF-7, land 3 with MDA-MB-453, lane 4 with MDA-MB-231, lane 5 with MDA-MB-435s, and lane 6 with MDA-MB-468. According to embodiments shown in FIG. 6B, cell lines were treated with STAT3 inhibitor at concentrations as indicated for 48 h, and apoptotic cells were detected with FACS.

[7] = test system: LNCaP prostate cancer cell line; assay: Anti-proliferative activity, MTS assay, LNCaP; assay type: cell-based; conditions: Homo sapiens, MTS assay, 2,000 cells/well, means of 2 experiments in triplicate
Description: as §2

[8] = test system: MCF-7 breast cancer cell line; assay: Anti-proliferative activity, MTS assay, MCF-7; assay type: cell-based
Description: as §2

AKT = assay: Phosphorylation of AKT; assay type: cell-based
JAK2 = target: T2, JAK2 (Homo sapiens, UniProt O60674); assay: Phosphorylation of JAK2; assay type: cell-based
T2 construct: endogenous in cells

STAT5 = assay: Electrophoretic mobility shift assay, STAT5 DNA binding; assay type: biochemical; conditions: 30 μM, MDA-MB-435s cell nuclear extract
Description: as §1

Src = target: T3, Src (Homo sapiens, UniProt P12931); assay: Phosphorylation of Src; assay type: cell-based
T3 construct: endogenous in cells

[9] = test system: MCF-7 and MDA-MB-453 cancer cell lines and human skin fibroblasts (HSF); assay: Apoptosis by FACS, cells lacking constitutively active STAT3; assay type: cell-based; conditions: 48 h, lack constitutively active STAT3
Experimental: as §5

SV40 promoter = assay: SV40 luciferase reporter (STAT3-independent); assay type: cell-based; conditions: 20 μM, 48h
Description: as §3, §4

ERK½ = assay: Phosphorylation of ERK½; assay type: cell-based

T3 sequence (P12931 whole entry): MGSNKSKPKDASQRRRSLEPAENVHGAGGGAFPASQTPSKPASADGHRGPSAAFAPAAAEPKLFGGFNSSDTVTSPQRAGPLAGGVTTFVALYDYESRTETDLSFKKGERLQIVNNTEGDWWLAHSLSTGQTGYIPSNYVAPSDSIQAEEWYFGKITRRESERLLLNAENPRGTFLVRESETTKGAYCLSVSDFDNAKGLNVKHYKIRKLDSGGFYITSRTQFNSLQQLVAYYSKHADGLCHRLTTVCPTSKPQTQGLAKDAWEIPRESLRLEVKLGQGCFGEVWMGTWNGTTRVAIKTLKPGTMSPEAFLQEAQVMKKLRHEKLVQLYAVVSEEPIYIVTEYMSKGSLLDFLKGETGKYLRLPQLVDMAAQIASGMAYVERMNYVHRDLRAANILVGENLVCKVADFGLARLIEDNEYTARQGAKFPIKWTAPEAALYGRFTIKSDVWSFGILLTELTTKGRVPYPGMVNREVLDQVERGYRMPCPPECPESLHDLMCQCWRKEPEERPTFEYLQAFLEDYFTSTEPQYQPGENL
T2 sequence (O60674 whole entry): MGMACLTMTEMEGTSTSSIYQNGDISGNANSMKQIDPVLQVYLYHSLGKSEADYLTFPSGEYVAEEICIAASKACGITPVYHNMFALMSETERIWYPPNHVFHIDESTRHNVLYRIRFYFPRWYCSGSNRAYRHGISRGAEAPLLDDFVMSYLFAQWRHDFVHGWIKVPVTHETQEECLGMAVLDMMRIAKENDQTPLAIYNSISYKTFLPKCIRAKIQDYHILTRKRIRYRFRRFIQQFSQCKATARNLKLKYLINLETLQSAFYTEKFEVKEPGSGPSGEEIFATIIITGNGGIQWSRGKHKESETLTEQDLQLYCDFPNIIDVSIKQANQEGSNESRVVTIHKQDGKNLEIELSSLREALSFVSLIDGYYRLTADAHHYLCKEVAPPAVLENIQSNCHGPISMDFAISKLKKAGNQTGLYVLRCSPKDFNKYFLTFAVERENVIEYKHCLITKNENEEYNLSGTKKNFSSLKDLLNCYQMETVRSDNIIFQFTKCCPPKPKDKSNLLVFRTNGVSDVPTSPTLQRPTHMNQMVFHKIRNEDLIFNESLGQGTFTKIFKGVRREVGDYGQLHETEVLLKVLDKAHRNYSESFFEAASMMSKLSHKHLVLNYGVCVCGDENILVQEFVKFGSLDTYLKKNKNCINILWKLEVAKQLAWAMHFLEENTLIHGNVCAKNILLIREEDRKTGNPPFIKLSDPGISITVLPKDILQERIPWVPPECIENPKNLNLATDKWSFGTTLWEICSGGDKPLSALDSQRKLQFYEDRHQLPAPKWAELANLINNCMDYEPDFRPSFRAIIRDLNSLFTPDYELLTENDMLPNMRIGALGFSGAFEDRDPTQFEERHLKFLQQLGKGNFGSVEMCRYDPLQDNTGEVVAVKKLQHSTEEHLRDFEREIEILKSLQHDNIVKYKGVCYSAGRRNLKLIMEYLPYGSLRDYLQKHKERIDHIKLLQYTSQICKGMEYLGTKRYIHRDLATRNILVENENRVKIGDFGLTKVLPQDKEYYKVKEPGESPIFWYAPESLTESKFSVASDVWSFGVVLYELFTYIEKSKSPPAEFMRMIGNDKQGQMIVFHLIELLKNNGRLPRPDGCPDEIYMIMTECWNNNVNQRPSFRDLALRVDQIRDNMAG

- STAT3 DNA binding activity (STAT3 [1]): specifically blocked STAT3 DNA binding
- IC50 [2]: 18.7 µM
- IC50 [3]: 12.2 µM
- STAT1 DNA binding (STAT1): did not inhibit
- IC50 [7]: 30.1 µM
- IC50 ([8]; Homo sapiens, MCF7, MTS assay, 2,000 cells/well, no constitutive STAT3 activation): > 100 µM
- phosphorylation of JAK2 (JAK2): did not inhibit
- STAT5 DNA binding (STAT5): did not inhibit
- phosphorylation of Src (Src): did not inhibit
- luciferase activity under control of the SV40 promoter (SV40 promoter): no significant difference
Compound: C[C@@H]1CC(=O)c2c(ccc3c2C(=O)c2cccc(O)c2C3=O)C1 [STA-21, deoxytetrangomycin]
- expression of STAT3-regulated genes cyclin D1 and Bcl-XL (cyclin D1 and Bcl-XL): inhibits the expression
- reduction in luciferase activity, pLucTKS3 transfected cells (STAT3 [4]): ~6 fold
- ability of STAT3-FLAG and STAT3-HA to dimerize (STAT3 [5]): significantly reduced
- increase in percentage of apoptotic cells [6]: 5-30 fold
- anti-proliferative activity in MCF-7 cells (in words) ([8]; cells with no constitutive STAT3 activation): did not show any antiproliferative activity
- phosphorylation of AKT (AKT): did not inhibit
- increase in percentage of apoptotic cells [9]: 0.5-1.2 fold
- phosphorylation of ERK½ (ERK½): did not inhibit

Reference: US20090082470A1, “STAT3 INHIBITING COMPOSITIONS AND METHODS” (priority 2007, published 2009)
